Assay [1] concerns the target T1, CBP (Homo sapiens, UniProt Q92793).
T1 construct: host or cells: A549 CBP HiBit cells
Kind of assay: CBP degradation, HiBit technology in A549 CBP HiBit cells (24 h). The conditions noted are these: 24 hrs post treatment. The class given is cell-based. The essentials: (§1)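 Degradation potency and Dmax came from luminescence after 10 min room-temperature lysis with HiBit detection buffer. Beforehand, HiBit-tagged A549 lines received serial compound dilutions (10 mM DMSO stocks) at 37 °C, 5% CO2. CBP cells were read at 24 h, p300 cells at 2 h.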
A general note: HiBiT is a short tag that completes a luciferase, so light tracks the accessible tagged protein.

The target of assay [2] is T2, p300 (Homo sapiens, UniProt Q09472).
T2 construct: host or cells: A549 P300 HiBit cells
T2 sequence (Q09472 whole entry): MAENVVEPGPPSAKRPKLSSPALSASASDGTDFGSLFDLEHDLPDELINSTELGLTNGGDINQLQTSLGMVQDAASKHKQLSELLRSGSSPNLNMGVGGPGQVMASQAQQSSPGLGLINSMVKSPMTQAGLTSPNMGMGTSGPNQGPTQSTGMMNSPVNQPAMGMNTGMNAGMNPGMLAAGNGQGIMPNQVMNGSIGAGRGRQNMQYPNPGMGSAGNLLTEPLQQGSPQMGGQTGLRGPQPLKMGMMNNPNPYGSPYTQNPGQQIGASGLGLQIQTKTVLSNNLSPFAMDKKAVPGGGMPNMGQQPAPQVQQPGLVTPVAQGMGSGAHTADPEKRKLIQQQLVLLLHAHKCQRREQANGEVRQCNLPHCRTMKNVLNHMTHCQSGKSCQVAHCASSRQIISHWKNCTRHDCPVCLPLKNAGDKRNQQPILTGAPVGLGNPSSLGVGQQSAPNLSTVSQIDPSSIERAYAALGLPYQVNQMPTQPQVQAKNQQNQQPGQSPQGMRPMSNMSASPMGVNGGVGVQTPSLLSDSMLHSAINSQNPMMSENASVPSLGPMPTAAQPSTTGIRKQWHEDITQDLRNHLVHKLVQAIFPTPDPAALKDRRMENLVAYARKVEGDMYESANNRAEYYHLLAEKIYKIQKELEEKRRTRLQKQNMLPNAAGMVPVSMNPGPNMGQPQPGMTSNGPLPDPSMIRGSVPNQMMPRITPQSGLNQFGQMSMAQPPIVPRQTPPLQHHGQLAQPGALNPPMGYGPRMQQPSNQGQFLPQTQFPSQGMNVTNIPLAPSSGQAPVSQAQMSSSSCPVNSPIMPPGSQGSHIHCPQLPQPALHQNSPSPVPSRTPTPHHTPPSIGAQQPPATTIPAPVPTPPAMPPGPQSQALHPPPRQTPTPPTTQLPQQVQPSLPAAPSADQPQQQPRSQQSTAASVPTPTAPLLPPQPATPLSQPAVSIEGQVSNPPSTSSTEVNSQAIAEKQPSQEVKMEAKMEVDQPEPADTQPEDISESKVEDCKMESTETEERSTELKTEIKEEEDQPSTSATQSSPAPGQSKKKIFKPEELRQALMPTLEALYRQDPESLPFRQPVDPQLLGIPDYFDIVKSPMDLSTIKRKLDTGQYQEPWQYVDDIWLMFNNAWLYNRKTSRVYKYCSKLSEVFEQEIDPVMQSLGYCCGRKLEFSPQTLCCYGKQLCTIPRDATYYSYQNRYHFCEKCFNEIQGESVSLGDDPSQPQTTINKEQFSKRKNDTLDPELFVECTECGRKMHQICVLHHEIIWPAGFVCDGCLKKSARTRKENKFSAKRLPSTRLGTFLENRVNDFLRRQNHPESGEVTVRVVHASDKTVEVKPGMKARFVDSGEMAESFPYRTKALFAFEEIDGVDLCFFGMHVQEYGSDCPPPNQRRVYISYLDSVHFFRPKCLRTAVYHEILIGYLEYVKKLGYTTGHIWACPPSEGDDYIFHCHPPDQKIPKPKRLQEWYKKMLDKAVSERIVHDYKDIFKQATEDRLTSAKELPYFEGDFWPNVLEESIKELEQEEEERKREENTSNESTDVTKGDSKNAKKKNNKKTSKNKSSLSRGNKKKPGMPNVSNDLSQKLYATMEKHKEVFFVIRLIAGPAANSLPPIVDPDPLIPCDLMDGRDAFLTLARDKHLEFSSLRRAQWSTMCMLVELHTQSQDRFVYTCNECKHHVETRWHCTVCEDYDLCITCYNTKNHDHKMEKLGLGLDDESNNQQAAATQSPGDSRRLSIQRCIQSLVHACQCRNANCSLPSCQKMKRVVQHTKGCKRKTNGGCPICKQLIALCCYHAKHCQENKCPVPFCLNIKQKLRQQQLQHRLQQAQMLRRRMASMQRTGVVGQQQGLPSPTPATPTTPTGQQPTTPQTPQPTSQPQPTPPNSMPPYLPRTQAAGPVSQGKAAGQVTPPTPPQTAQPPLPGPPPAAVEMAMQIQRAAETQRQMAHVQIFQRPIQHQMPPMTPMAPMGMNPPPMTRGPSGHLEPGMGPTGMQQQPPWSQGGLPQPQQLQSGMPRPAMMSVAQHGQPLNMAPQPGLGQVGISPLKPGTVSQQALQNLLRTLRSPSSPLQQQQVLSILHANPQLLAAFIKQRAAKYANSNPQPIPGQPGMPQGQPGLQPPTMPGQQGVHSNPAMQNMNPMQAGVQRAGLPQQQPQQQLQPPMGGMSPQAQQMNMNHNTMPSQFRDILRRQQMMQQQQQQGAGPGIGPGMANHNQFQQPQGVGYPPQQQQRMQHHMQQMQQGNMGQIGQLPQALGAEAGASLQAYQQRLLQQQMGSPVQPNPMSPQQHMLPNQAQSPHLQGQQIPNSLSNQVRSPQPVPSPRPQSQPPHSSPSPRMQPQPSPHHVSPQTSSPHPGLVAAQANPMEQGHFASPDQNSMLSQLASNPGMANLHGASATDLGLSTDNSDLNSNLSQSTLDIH
Put plainly: P300 degradation, HiBit technology in A549 P300 HiBit cells (2 h). The class given is cell-based. Particulars: 2 hrs post treatment; for Dmax: A549, A549 P300 HiBit cells; for DC50: A549 P300 HiBit cells. The gist of the method: as §1

For twelve molecules, DC50 and Dmax results are on record in US20250114345A1, “COMPOUNDS AND COMPOSITIONS AS CBP/P300 DEGRADERS AND USES THEREOF” (Oncopia Therapeutics, Inc. d/b/a/ SK Life Science Labs, priority 2023, published 2025).

The structures appear in SMILES notation.

T1 sequence (Q92793 whole entry): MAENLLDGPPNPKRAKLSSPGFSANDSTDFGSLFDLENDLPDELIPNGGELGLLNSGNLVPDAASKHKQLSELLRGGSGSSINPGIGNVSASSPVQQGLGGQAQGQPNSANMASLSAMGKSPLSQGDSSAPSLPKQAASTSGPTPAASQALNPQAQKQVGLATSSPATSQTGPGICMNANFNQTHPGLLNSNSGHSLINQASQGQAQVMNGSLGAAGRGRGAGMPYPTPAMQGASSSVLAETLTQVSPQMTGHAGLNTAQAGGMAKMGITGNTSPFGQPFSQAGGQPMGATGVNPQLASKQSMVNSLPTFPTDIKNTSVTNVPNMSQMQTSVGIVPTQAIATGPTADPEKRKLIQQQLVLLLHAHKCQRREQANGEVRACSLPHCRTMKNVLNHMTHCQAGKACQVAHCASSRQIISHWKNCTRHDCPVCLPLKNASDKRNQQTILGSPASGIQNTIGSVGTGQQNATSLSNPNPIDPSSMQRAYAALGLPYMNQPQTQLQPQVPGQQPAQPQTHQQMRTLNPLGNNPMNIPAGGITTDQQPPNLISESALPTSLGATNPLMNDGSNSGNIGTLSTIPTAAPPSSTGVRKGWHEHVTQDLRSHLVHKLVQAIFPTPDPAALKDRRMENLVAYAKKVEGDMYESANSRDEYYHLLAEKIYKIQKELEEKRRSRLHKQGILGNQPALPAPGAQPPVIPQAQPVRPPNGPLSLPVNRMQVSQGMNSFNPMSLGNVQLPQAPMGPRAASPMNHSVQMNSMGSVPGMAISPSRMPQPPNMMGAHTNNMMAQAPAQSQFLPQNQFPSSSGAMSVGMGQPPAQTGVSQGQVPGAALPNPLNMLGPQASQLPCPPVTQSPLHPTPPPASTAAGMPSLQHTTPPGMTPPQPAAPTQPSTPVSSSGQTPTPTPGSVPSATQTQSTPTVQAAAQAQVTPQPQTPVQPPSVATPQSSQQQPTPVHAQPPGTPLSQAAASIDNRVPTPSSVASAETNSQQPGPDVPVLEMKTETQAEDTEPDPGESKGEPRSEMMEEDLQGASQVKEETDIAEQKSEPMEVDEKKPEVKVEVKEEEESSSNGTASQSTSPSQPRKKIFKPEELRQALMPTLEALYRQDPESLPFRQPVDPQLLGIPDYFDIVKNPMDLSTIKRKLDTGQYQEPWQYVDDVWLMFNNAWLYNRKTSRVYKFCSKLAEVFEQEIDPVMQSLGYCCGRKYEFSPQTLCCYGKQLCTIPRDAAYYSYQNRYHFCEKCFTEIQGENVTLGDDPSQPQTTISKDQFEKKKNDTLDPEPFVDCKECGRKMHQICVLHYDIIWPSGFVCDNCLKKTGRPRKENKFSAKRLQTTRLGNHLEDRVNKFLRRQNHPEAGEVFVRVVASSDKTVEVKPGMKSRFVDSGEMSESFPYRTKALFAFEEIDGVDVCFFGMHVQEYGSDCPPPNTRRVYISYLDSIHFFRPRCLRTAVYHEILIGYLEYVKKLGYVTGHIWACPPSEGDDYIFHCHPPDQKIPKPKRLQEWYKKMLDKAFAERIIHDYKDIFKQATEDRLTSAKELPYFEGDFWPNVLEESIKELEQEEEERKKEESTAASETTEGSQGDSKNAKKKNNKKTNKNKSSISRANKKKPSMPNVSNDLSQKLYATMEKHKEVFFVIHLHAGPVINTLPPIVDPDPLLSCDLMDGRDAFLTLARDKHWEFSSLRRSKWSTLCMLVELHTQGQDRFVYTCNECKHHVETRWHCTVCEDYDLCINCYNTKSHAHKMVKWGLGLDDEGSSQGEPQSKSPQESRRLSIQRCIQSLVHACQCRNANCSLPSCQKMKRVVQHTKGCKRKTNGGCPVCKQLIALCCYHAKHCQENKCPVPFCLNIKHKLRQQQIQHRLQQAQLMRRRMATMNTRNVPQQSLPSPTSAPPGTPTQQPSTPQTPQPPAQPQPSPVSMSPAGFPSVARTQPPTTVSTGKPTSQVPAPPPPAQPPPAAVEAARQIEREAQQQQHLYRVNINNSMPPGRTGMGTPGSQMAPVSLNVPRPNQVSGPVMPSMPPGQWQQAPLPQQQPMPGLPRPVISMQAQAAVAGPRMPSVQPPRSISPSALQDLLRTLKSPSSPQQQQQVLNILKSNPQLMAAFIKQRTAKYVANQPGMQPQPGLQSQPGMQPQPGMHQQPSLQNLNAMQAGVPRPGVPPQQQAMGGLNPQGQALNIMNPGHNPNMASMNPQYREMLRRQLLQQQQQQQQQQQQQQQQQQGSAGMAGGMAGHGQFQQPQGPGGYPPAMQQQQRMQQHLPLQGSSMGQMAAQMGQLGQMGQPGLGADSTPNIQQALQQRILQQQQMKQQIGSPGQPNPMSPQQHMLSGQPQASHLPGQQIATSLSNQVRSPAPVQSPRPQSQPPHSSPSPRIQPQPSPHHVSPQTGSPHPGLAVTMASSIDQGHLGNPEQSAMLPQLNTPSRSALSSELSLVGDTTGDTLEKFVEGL

For the molecule `Cn1c(=O)n(C)c2cc(-c3cccc4cc(-c5ccc(C(=O)NCC#Cc6cc7c([C@H]8CCC(=O)NC8=O)cccc7o6)nc5)ncc34)ccc21` [Example A170, (R)-5-(8-(1,3-dimethyl-2-oxo-2,3-dihydro-1H-benzo[d]imidazol-5-yl)isoquinolin-3-yl)-N-(3-(4-(2,6-dioxo-piperidin-3-yl)benzofuran-2-yl)prop-2-yn-1-yl)picolinamide], in assay [1], the DC50 (commonly the concentration giving 50% degradation) was over 1000 nM and the Dmax (in general, the largest share of the target that was removed) was under 20%. In assay [2], this molecule showed a Dmax of over 80% and a DC50 of under 1 nM.
For `Cc1cc2c(-c3cccc4cc(-c5ccc(C(=O)NCC#Cc6ccc7occ(C8CCC(=O)NC8=O)c7c6)nc5)ncc34)nc(N3CC(O)C3)cc2n(C)c1=O` (stereo not drawn) [Example B66, N-(3-(3-(2,6-dioxopiperidin-3-yl)benzofuran-5-yl)prop-2-yn-1-yl)-5-(8-(7-(3-hydroxy-azetidin-1-yl)-1,3-dimethyl-2-oxo-1,2-dihydro-1,6-naphthyridin-5-yl)isoquinolin-3-yl) picolinamide], in assay [1], the DC50 is over 1000 nM and the Dmax is under 20%. Besides, in assay [2], the maximal degradation (Dmax) was over 80% and the 50% degradation concentration (DC50) is under 1 nM.
In the same order, the values of `CC(C)c1cc(-c2cccc3cc(-c4ccc(C(=O)NCC#Cc5ccc6cnn(C7CCC(=O)NC7=O)c6c5)nc4)ncc23)cc2c1n(C)c(=O)n2C` (stereo not drawn) [Example A11, N-(3-(1-(2,6-Dioxopiperidin-3-yl)-1H-indazol-6-yl)prop-2-yn-1-yl)-5-(8-(7-isopropyl-1,3-dimethyl-2-oxo-2,3-dihydro-1H-benzo[d]imidazol-5-yl)isoquinolin-3-yl)picolinamide] are 10 to 99 nM, 20 to 39%, over 80% and 1 to 9.9 nM.
For `CC(C)c1cc(-c2cccc3cc(-c4ccc(C(=O)NCC#Cc5ccc6[nH]nc(C7CCC(=O)NC7=O)c6c5)nc4)ncc23)cc2c1n(C)c(=O)n2C` (stereo not drawn) [Example A204, N-(3-(3-(2,6-dioxo-piperidin-3-yl)-1H-indazol-5-yl)prop-2-yn-1-yl)-5-(8-(7-isopropyl-1,3-dimethyl-2-oxo-2,3-dihydro-1H-benzo [d]imidazol-5-yl)isoquinolin-3-yl)picolinamide], the DC50 in assay [1] and in assay [2] was 1 to 9.9 nM each time. Moreover, the results for the Dmax in assay [1] and in assay [2] were 60 to 79% and over 80%, respectively.
In assay [1], `CC(C)c1cc(-c2cccc3cc(-c4ccc(C(=O)NCC#Cc5cnc6c(c5)c(C5CCC(=O)NC5=O)cn6C)nc4)ncc23)cc2c1n(C)c(=O)n2C` (stereo not drawn) [Example A202, N-(3-(3-(2,6-dioxo-piperidin-3-yl)-1-methyl-1H-pyrrolo [2,3-b]pyridin-5-yl)prop-2-yn-1-yl)-5-(8-(7-isopropyl-1,3-dimethyl-2-oxo-2,3-dihydro-1H-benzo[d]imidazol-5-yl)isoquinolin-3-yl)picolinamide] displayed a 50% degradation concentration (DC50) of over 1000 nM and a Dmax of under 20%. In assay [2], this molecule yielded a Dmax of 60 to 79% and a DC50 of 10 to 99 nM.
In the same order, the values of `Cc1cc(-c2ncc3c(n2)CCCN3c2cc(C3CCOCC3)cc3c2cc(C)c(=O)n3C)cnc1C(=O)NCC#Cc1cc2c(C3CCC(=O)NC3=O)cccc2o1` (stereo not drawn) [Example B141, 5-(5-(1,3-dimethyl-2-oxo-7-(tetrahydro-2H-pyran-4-yl)-1,2-dihydroquinolin-5-yl)-5,6,7,8-tetrahydropyrido[3,2-d]pyrimidin-2-yl)-N-(3-(4-(2,6-dioxopiperidin-3-yl)benzofuran-2-yl)prop-2-yn-1-yl)-3-methylpicolinamide] are 10 to 99 nM, 20 to 39%, over 80% and under 1 nM.
In assay [1], `CN1Cc2c(-c3cccc4cc(-c5ccc(C(=O)NCC#Cc6ccc7cnn(C8CCC(=O)NC8=O)c7c6)nc5)ncc34)cc(C(C)(F)F)cc2N(C)C1=O` (stereo not drawn) [Example B9, 5-(8-(7-(1,1-Difluoroethyl)-1,3-dimethyl-2-oxo-1,2,3,4-tetrahydroquinazolin-5-yl)isoquinolin-3-yl)-N-(3-(1-(2,6-dioxopiperidin-3-yl)-1H-indazol-6-yl)prop-2-yn-1-yl)picolinamide] registered a DC50 of 10 to 99 nM and a maximal degradation (Dmax) of 40 to 59%. In assay [2], this molecule yielded a Dmax of over 80% and a DC50 of 1 to 9.9 nM.
The corresponding values for `CCN(c1cnc(-c2cnc(C(=O)NCC#Cc3ccc4occ(C5CCC(=O)NC5=O)c4c3)c(C)c2)nc1)c1cc(C2CCOCC2)c2c(c1)n(C)c(=O)n2C` (stereo not drawn) [Example A95, 5-(5-((1,3-dimethyl-2-oxo-7-(tetrahydro-2H-pyran-4-yl)-2,3-dihydro-1H-benzo [d]imidazol-5-yl)(ethyl)amino)pyrimidin-2-yl)-N-(3-(3-(2,6-dioxopiperidin-3-yl)benzofuran-5-yl)prop-2-yn-1-yl)-3-methylpicolinamide] are over 1000 nM, under 20%, over 80% and 1 to 9.9 nM.
The corresponding values for `CC(C)c1cc(-c2cccc3cc(-c4ccc(C(=O)NCC#Cc5cc6c(F)ccc(C7CCC(=O)NC7=O)c6o5)nc4)ncc23)cc2c1n(C)c(=O)n2C` (stereo not drawn) [Example A185, N-(3-(7-(2,6-dioxo-piperidin-3-yl)-4-fluorobenzofuran-2-yl)prop-2-yn-1-yl)-5-(8-(7-isopropyl-1,3-dimethyl-2-oxo-2,3-dihydro-1H-benzo [d]imidazol-5-yl)isoquinolin-3-yl)picolinamide] are over 1000 nM, under 20%, 60 to 79% and 10 to 99 nM.
As for `Cc1cc(-c2ccc(N(C)c3cc(C4CCOCC4)c4c(c3)n(C)c(=O)n4C)cn2)cnc1C(=O)NCC#Cc1cccc(NC2CCC(=O)NC2=O)c1` (stereo not drawn) [Example A45, 5-((1,3-dimethyl-2-oxo-7-(tetrahydro-2H-pyran-4-yl)-2,3-dihydro-1H-benzo[d]imidazol-5-yl) (methyl)amino)-N-(3-(3-((2,6-dioxopiperidin-3-yl)amino)phenyl)prop-2-yn-1-yl)-5′-methyl-[2,3′-bipyridine]-6′-carboxamide], in assay [1], the 50% degradation concentration (DC50) was over 1000 nM and the Dmax is under 20%. In assay [2], the Dmax is over 80% and the DC50 was in the range of 1 to 9.9 nM.
For `CC(C)c1cc(-c2cccc3cc(-c4ccc(C(=O)NCC#Cc5ccc6oc(=O)n(C7CCC(=O)NC7=O)c6c5)nc4)ncc23)cc2c1n(C)c(=O)n2C` (stereo not drawn) [Example A14, N-(3-(3-(2,6-Dioxopiperidin-3-yl)-2-oxo-2,3-dihydrobenzo[d]oxazol-5-yl)prop-2-yn-1-yl)-5-(8-(7-isopropyl-1,3-dimethyl-2-oxo-2,3-dihydro-1H-benzo[d]imidazol-5-yl)isoquinolin-3-yl)picolinamide], in assay [1], the DC50 is 10 to 99 nM and the Dmax lay within 60 to 79%. Also, in assay [2], the greatest degradation seen (Dmax) is over 80% and the DC50 was in the range of 1 to 9.9 nM.
In assay [1], `Cc1cc2c(N3CCCc4nc(-c5ccc(C(=O)NCC#Cc6cc7c(C8CCC(=O)NC8=O)cccc7o6)nc5)ncc43)cc(C3CCOCC3)nc2n(C)c1=O` (stereo not drawn) [Example B47, 5-(5-(6,8-dimethyl-7-oxo-2-(tetrahydro-2H-pyran-4-yl)-7,8-dihydro-1,8-naphthyridin-4-yl)-5,6,7,8-tetrahydropyrido[3,2-d]pyrimidin-2-yl)-N-(3-(4-(2,6-dioxopiperidin-3-yl)benzofuran-2-yl)prop-2-yn-1-yl)picolinamide] showed a DC50 of over 1000 nM and a Dmax of under 20%. In assay [2], the maximal degradation (Dmax) was over 80% and the DC50 is under 1 nM.
